Measurements reported in patent US12187756B2 (priority 2018, dated 2025).

Details: buffer

**Q.** For CC(=O)NC1[C@H](O[C@@H]2C(CO)O[C@H](O[C@H]3C(CO)O[C@@H](O[C@@H]4C(O)[C@@H](COP(=O)(O)OCCCCCN)OC(CO)[C@H]4O)C(NC(C)=O)[C@H]3O[C@@H]3OC(CO)[C@@H](O)[C@H](O)C3O)[C@@H](O)C2O)OC(CO)[C@H](O)[C@@H]1O[C@@H]1OC(CO)[C@@H](O)[C@H](O)C1O (stereo partly shown) [compound 33], which “compound remaining intact (HPLC)” value is on record?
**A.** The value was 50%.
